Earlier results on 3 compounds are cited in US20140100282A1, “INTRANASAL ADMINISTRATION OF PHARMACEUTICAL AGENTS FOR TREATMENT OF NEUROLOGICAL DISEASES” (priority 2012, published 2014).

Where two headings read alike, the source gives them in different places.

The conditions of series [1]: mouse, intravenous, autoradiography after 30 minutes.
Series [2] relates to glioblastoma cells.
In series [3] the test system is protein phosphatase 2A (PP2A). The conditions noted are these: murine primary neurons from wild-type and human tau transgenic mice.
For series [4], the system named is amyloid beta. The conditions noted are these: monotherapy at doses that lead to activation of AMPK.
The conditions of series [5]: animal and humans.
The subject of series [6] is tau. As to conditions: transgenic mice.
The conditions of series [7]: intranasal.

Turning to `NCCc1c[nH]cn1` [histamine], in series [1], the “penetration into the brain or spinal cord through the BBB” value is “zero penetration”.

Turning to `CN(C)C(=N)NC(=N)N` [metformin], the “migration of glioblastoma cells” value in series [2] is “significantly inhibited”. In addition, the “growth of glioblastoma cells” value in series [2] (basal and leptin-stimulated) is “reduced basal and leptin-stimulated growth of glioblastoma cells in a dose-dependent manner”. For the same compound, the PP2A activity result in series [3] is “induces PP2A activity”. The “generation of amyloid beta species” value in series [4] was “significantly increases”. Besides, the “absorption from the blood to the brain” value in series [5] is given as “negligible”. Further, the results for the “phosphorylation of Ser202” value in series [6] (100 nM) and in series [6] (10 μM) were “decreased phosphorylation of Ser202 slightly” and “significantly reduced”, respectively.

On to “insulin: intranasal insulin (20 and 40 IU)”, for which the “cognition on Alzheimer Disease's Assessment Scale-cognitive subscale” value in series [7] (20 and 40 IU, compared with placebo) is on record as “less decline in cognition”. Moreover, in series [7] (20 or 40 IU for 4 months, relative to placebo), the “recall of episodic memories” value is listed as “improved recall of episodic memories”. The “brain glucose uptake and utilization” value in series [7] (over the 4-month period, compared with placebo) was “reduced decline in brain glucose uptake and utilization”.
